IC50 data for 24 molecules are collected here from ChEMBL document CHEMBL3421549, “2-Aryl-3-methyloctahydrophenanthrene-2,3,7-triols as potent dissociated glucocorticoid receptor agonists” (J Med Chem, 2015).

Structures are written as SMILES. Bounds are passed on as bounds.

Broadly, the IC50 is the concentration at which inhibition is half-maximal.

For assay [1], the target named is T1, Glucocorticoid receptor (Homo sapiens, UniProt P04150).
T1 sequence (P04150 whole entry): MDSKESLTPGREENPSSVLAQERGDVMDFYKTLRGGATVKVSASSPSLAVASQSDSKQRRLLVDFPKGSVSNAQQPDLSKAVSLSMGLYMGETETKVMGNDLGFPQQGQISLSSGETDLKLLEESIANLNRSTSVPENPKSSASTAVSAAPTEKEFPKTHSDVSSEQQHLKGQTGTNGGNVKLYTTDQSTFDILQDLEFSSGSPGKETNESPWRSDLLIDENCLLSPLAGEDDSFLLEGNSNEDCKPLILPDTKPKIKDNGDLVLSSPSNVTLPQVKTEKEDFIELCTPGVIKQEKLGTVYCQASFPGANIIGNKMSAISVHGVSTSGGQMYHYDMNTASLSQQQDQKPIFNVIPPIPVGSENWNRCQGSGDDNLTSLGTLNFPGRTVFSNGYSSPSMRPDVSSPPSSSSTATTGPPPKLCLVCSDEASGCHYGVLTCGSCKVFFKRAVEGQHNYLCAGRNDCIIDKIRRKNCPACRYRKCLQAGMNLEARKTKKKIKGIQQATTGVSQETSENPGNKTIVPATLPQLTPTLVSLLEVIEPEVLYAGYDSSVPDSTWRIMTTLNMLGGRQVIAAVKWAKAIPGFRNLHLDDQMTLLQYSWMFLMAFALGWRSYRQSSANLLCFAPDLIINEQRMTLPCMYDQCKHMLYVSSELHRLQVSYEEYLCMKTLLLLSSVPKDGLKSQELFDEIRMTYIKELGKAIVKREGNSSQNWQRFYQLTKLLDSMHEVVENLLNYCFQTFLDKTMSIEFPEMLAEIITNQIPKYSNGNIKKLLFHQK
Briefly: Transrepression activity at glucocorticoid receptor in human SW1353 cells assessed as repression of IL-1-induced MMP-13 production after 24 hrs by ELISA. Format: cell-based.

A further assay concerns the target T2, Androgen receptor (Homo sapiens, UniProt P10275).
T2 sequence (P10275 whole entry): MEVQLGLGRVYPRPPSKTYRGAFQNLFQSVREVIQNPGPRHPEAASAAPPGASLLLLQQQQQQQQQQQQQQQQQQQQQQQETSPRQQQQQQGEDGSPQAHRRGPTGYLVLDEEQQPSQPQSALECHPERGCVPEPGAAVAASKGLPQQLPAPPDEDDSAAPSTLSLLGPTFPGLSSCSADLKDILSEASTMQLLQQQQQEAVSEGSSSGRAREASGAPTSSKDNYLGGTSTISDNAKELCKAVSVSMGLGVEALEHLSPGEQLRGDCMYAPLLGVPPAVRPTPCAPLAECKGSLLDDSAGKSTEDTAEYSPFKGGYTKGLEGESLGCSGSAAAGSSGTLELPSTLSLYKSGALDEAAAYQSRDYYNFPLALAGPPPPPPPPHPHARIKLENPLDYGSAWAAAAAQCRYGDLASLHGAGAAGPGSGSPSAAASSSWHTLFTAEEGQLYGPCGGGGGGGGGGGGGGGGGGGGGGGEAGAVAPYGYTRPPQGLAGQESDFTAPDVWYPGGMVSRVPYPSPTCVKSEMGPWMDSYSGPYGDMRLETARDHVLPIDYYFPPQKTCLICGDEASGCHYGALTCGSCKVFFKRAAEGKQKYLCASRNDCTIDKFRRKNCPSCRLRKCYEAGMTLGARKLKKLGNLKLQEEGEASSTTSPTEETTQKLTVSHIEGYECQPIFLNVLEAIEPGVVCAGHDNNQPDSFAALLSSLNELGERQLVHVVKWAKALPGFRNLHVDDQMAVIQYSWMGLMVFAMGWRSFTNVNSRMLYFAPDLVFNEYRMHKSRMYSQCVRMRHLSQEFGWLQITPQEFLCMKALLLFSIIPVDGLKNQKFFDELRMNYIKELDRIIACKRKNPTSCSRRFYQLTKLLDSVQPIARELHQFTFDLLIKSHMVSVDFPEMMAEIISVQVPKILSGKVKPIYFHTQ
In words: Binding affinity to human AR.

A further assay addresses T3, Progesterone receptor (Homo sapiens, UniProt P06401).
T3 sequence (P06401 whole entry): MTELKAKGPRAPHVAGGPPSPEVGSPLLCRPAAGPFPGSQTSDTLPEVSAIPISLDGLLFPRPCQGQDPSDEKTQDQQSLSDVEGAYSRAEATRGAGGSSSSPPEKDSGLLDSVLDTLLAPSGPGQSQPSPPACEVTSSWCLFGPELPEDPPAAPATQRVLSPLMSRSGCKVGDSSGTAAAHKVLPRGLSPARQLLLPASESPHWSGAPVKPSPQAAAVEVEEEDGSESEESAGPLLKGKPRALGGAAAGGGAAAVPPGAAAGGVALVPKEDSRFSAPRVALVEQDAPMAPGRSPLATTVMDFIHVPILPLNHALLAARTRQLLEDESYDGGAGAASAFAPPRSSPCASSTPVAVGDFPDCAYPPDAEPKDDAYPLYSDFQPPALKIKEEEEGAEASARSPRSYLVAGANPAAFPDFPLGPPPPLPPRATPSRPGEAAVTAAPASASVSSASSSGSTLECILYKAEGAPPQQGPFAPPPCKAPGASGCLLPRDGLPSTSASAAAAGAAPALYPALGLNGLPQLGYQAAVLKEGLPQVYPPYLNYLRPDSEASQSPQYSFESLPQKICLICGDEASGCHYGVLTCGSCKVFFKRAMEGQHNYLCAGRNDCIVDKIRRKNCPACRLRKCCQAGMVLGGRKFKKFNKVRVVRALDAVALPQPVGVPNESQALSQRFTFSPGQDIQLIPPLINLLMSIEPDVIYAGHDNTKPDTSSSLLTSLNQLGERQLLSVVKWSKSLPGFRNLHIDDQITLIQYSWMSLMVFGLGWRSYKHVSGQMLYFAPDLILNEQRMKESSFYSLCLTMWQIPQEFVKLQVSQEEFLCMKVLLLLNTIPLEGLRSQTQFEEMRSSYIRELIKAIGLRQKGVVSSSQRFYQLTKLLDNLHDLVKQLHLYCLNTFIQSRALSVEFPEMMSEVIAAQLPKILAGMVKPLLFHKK
Briefly: Binding affinity to human PR.

Another assay concerns the target T4, Estrogen receptor (Homo sapiens, UniProt P03372).
T4 sequence (P03372 whole entry): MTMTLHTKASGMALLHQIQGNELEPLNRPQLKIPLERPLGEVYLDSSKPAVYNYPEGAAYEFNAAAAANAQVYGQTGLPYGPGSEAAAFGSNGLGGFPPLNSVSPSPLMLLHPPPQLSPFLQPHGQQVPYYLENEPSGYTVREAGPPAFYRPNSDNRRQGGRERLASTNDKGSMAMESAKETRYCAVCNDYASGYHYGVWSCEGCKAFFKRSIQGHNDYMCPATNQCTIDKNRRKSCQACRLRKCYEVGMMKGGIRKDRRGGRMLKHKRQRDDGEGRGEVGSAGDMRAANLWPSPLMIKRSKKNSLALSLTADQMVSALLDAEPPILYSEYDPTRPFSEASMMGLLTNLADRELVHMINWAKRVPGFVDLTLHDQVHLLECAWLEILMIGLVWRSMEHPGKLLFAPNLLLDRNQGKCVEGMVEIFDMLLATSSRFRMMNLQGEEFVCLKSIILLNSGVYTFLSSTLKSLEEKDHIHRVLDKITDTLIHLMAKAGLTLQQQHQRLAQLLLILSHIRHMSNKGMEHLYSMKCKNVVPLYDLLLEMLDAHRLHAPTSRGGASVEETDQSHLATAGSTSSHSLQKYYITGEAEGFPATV
In words: Binding affinity to human ER-alpha.

The target in another assay is Estrogen receptor beta (Homo sapiens, UniProt Q92731). In words: Binding affinity to human ER-beta.
Assay [2] has as its target T1, Glucocorticoid receptor.
Description: Binding affinity to human GR
Assay [3] deals with T1, Glucocorticoid receptor. This is another data set of the same source.
Description: Transrepression activity at glucocorticoid receptor in human whole blood assessed as repression of IL-1-induced TNF-alpha production after 4 hrs by ELISA

Estrogen receptor beta, sequence (Q92731 whole entry): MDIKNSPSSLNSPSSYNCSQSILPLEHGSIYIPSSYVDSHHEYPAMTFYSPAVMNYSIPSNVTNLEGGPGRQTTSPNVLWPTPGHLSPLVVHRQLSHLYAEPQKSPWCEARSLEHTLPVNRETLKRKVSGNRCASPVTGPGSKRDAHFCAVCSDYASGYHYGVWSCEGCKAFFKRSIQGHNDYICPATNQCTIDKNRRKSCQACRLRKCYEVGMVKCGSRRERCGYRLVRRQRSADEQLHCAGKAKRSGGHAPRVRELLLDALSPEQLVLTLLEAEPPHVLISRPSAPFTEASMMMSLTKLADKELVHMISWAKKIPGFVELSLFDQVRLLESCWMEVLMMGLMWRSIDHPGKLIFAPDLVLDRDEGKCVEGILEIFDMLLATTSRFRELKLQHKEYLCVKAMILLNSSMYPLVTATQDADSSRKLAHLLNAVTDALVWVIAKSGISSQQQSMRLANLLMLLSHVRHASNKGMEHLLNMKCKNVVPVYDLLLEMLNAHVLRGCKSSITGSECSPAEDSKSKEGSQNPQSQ

`CC[C@@]12C[C@@](C)(O)[C@](O)(c3ccccc3)C[C@H]1CCc1cc(O)ccc12`: the IC50 was 3.5 nM at Glucocorticoid receptor [1]; 300 nM at Androgen receptor; 321 nM on Progesterone receptor; over 3.2 µM at Estrogen receptor; over 3.2 µM on Estrogen receptor beta; 0.6 nM on Glucocorticoid receptor [2]. The IC50 against Glucocorticoid receptor [3] stood at 109 nM.
As to `CC[C@@]12C[C@](O)(CC)[C@](O)(c3ccccc3)C[C@H]1CCc1cc(O)ccc12`, the IC50 at Glucocorticoid receptor [1] amounted to 6 nM; on Glucocorticoid receptor [2], 1.2 nM.
Taken in the same sequence, the figures for `C=C[C@@]1(O)C[C@@]2(CC)c3ccc(O)cc3CC[C@@H]2C[C@@]1(O)c1ccccc1` were over 5000 nM and 5.2 nM.
The like results for `CC[C@@]12C[C@](C)(O)[C@](O)(c3ccccc3)C[C@H]1CCc1cc(O)ccc12` were, in that order, over 5000 nM and 38 nM.
As for `CC[C@@]12C[C@@](C)(O)[C@](O)(c3ccc(C)cc3)C[C@H]1CCc1cc(O)ccc12`, the figures for the IC50 at Glucocorticoid receptor [1] and against Glucocorticoid receptor [2] were 12 nM and 1.3 nM, respectively.
Regarding `CC[C@@]12C[C@@](C)(O)[C@](O)(c3ccccn3)C[C@H]1CCc1cc(O)ccc12`, the IC50 worked out at 1.5 nM on Glucocorticoid receptor [1], 1.5 nM on Glucocorticoid receptor [2] and 167 nM against Glucocorticoid receptor [3].
For `CC[C@@]12C[C@@](C)(O)[C@](O)(c3cccnc3)C[C@H]1CCc1cc(O)ccc12`, the IC50 on Glucocorticoid receptor [1] amounted to 80 nM; against Glucocorticoid receptor [2], 22 nM.
The like results for `CC[C@@]12C[C@@](C)(O)[C@](O)(c3ccncc3)C[C@H]1CCc1cc(O)ccc12` were, in that order, 100 nM and 9.1 nM.
As to `CC[C@@]12C[C@@](C)(O)[C@](O)(c3nccs3)C[C@H]1CCc1cc(O)ccc12`, the IC50 on Glucocorticoid receptor [1] was determined as 1.5 nM; against Glucocorticoid receptor [2] it was 0.79 nM; on Glucocorticoid receptor [3], 83 nM.
`CC[C@@]12C[C@@](C)(O)[C@@](C)(O)C[C@H]1CCc1cc(O)ccc12` registered an IC50 against Glucocorticoid receptor [2] of 211 nM.
On to `CCC[C@]1(O)C[C@H]2CCc3cc(O)ccc3[C@]2(CC)C[C@@]1(C)O`, for which the IC50 at Glucocorticoid receptor [1] was over 5000 nM; at Glucocorticoid receptor [2], 20.1 nM.
Taken in the same sequence, the figures for `C=CC[C@]1(O)C[C@H]2CCc3cc(O)ccc3[C@]2(CC)C[C@@]1(C)O` were over 5000 nM and 35.4 nM.
Regarding `CC#C[C@]1(O)C[C@H]2CCc3cc(O)ccc3[C@]2(CC)C[C@@]1(C)O`, the IC50 at Glucocorticoid receptor [1] worked out at 1.9 nM; on Glucocorticoid receptor [2], 1.5 nM.
Take `CC[C@@]12C[C@@](C)(O)[C@](O)(c3ccccc3)C[C@H]1CC(=O)c1cc(O)ccc12`: the IC50 was 5 nM on Glucocorticoid receptor [1], 2.5 nM on Glucocorticoid receptor [2] and 72.5 nM against Glucocorticoid receptor [3].
`CC[C@@]12C[C@@](C)(O)[C@](O)(c3ccccc3)C[C@H]1C[C@@H](O)c1cc(O)ccc12`: the IC50 at Glucocorticoid receptor [1] was over 5000 nM; on Glucocorticoid receptor [2], 79 nM.
On to `CC[C@@]12C[C@@](C)(O)[C@](O)(c3ccccc3)C[C@H]1C=Cc1cc(O)ccc12`, for which the IC50 was found to be 4 nM on Glucocorticoid receptor [1], 0.3 nM at Glucocorticoid receptor [2] and 400 nM on Glucocorticoid receptor [3].
The like results for `CC[C@@]12C[C@@](C)(O)[C@](O)(c3ccccc3)C[C@H]1C=C(C)c1cc(O)ccc12` were, in that order, 0.6 nM, 0.67 nM and 43 nM.
In the case of `CC[C@@]12C[C@@](C)(O)[C@](O)(c3ccccc3)C[C@H]1CC(=O)c1cc(OC(=O)c3ccccc3)ccc12`, the IC50 on Glucocorticoid receptor [1] is 28 nM; against Glucocorticoid receptor [2], 1.7 nM.
On to `CC[C@@]12CC[C@](O)(c3ccccc3)C[C@H]1CCc1cc(O)ccc12`, for which the IC50 at Glucocorticoid receptor [1] was over 5000 nM.
The same measure, in the same setting: for `CC[C@@]12C[C@@H](O)[C@](O)(c3ccccc3)C[C@H]1CCc1cc(O)ccc12` the value was over 5000 nM.
`CC[C@@]12C[C@@](C)(O)[C@](O)(CC)C[C@H]1CCc1cc(O)ccc12` (mixture of isomers): the IC50 at Glucocorticoid receptor [1] was over 5000 nM; at Glucocorticoid receptor [2] it was 47 nM.
On to `C=C[C@]1(O)C[C@H]2CCc3cc(O)ccc3[C@]2(CC)C[C@@]1(C)O` (mixture of isomers), for which the IC50 on Glucocorticoid receptor [1] worked out at 650 nM; at Glucocorticoid receptor [2] it was 12.1 nM.
The like results for `C/C=C/[C@]1(O)C[C@H]2CCc3cc(O)ccc3[C@]2(CC)C[C@@]1(C)O` (mixture of isomers) were, in that order, 6 nM and 2.1 nM.
As for `Cc1noc(=O)c2ccc(NC(=O)C(O)(CC3(c4cc(F)ccc4Cl)CCC3)C(F)(F)F)cc12` (racemic), the IC50 at Glucocorticoid receptor [1] was 7.5 nM; on Androgen receptor, 40 nM; on Progesterone receptor, 0.2 nM; at Estrogen receptor, over 100 µM; at Estrogen receptor beta it was over 100 µM; on Glucocorticoid receptor [2], 0.4 nM. Further, at Glucocorticoid receptor [3], the IC50 is 1000 nM.
